Source: US8883781B2, “Thienopyrimidines useful as modulators of ion channels” (Vertex Pharmaceuticals Incorporated, priority 2006, dated 2014)
Where two headings read alike, the source gives them in different places.

Columns and labels:
NaV1.8 [1] = molecular target: T1, NaV1.8 (Homo sapiens, UniProt Q9Y5Y9); experiment: Activity against NaV 1.8 channel (Table 4); type: cell-based
Method: Compounds of the invention are useful as antagonists of voltage-gated sodium ion channels. Antagonist properties of test compounds were assessed as follows. Cells expressing the NaV of interest were placed into microtiter plates. After an incubation period, the cells were stained with fluorescent dyes sensitive to the transmembrane potential. The test compounds were added to the microtiter plate. The cells were stimulated with either a chemical or electrical means to evoke a NaV dependent membrane potential change from unblocked channels, which was detected and measured with trans-membrane potential-sensitive dyes. Antagonists were detected as a decreased membrane potential response to the stimulus. The optical membrane potential assay utilized voltage-sensitive FRET sensors described by Gonzalez and Tsien (See, Gonzalez, J. E. and R. Y. Tsien (1995) “Voltage sensing by fluorescence resonance energy transfer in single cells” Biophys J 69(4):1272-80, and Gonzalez, J. E. and R. Y. Tsien (1997) “Improved indicators of cell membrane potential that use fluorescence resonance energy transfer” Chem Biol 4(4): 269-77) in combination with instrumentation for measuring fluorescence change such as the Voltage/Ion Probe Reader (VIPR®) (See, Gonzalez, J. E., K. Oades, et al. (1999) “Cell-based assays and instrumentation for screening ion-channel targets” Drug Discov Today 4(9): 431-439).
24 hours before the assay on VIPR, CHO cells endogenously expressing a NaV 1.2 type voltage-gated NaV are seeded in 96-well poly-lysine coated plates at 60,000 cells per well. Other subtypes are performed in an analogous mode in a cell line expressing the NaV of interest.
The following is an example of how NaV1.3 inhibition activity is measured using the optical membrane potential method#2. Other subtypes are performed in an analogous mode in a cell line expressing the NaV of interest.
HEK293 cells stably expressing NaV1.3 are plated into 96-well microtiter plates. After an appropriate incubation period, the cells are stained with the voltage sensitive dyes CC2-DMPE/DiSBAC2(3) as follows.
Patch clamp electrophysiology was used to assess the efficacy and selectivity of sodium channel blockers in dorsal root ganglion neurons. Rat neurons were isolated from the dorsal root ganglions and maintained in culture for 2 to 10 days in the presence of NGF (50 ng/ml) (culture media consisted of NeurobasalA supplemented with B27, glutamine and antibiotics). Small diameter neurons (nociceptors, 8-12 μm in diameter) have been visually identified and probed with fine tip glass electrodes connected to an amplifier (Axon Instruments). The “voltage clamp” mode has been used to assess the compound's IC50 holding the cells at −60 mV. In addition, the “current clamp” mode has been employed to test the efficacy of the compounds in blocking action potential generation in response to current injections. The results of these experiments have contributed to the definition of the efficacy profile of the compounds.
TTX-resistant sodium currents were recorded from DRG somata using the whole-cell variation of the patch clamp technique. Recordings were made at room temperature (˜22° C.) with thick walled borosilicate glass electrodes (WPI; resistance 3-4 MΩ) using an Axopatch 200B amplifier (Axon Instruments). After establishing the whole-cell configuration, approximately 15 minutes were allowed for the pipette solution to equilibrate within the cell before beginning recording. Currents were lowpass filtered between 2-5 kHz and digitally sampled at 10 kHz. Series resistance was compensated 60-70% and was monitored continuously throughout the experiment. The liquid junction potential (−7 mV) between the intracellular pipette solution and the external recording solution was not accounted for in the data analysis. Test solutions were applied to the cells with a gravity driven fast perfusion system (SF-77; Warner Instruments). […]

NaV1.9 = NaV1.9 (Homo sapiens, UniProt Q9UI33); conditions: read-out: TTX IC50; cited from earlier work
NaV1.1 = NaV1.1 (Homo sapiens, UniProt P35498); conditions: read-out: TTX IC50; cited from earlier work
NaV1.6 = NaV1.6 (Homo sapiens, UniProt Q9UQD0); conditions: read-out: TTX IC50; cited from earlier work
NaV1.8 [2] = molecular target: T1, NaV1.8; conditions: read-out: TTX IC50; cited from earlier work
NaV1.2 = NaV1.2 (Homo sapiens, UniProt Q99250); conditions: read-out: TTX IC50; cited from earlier work
Sequence of NaV1.2 (Q99250 whole entry, looked up): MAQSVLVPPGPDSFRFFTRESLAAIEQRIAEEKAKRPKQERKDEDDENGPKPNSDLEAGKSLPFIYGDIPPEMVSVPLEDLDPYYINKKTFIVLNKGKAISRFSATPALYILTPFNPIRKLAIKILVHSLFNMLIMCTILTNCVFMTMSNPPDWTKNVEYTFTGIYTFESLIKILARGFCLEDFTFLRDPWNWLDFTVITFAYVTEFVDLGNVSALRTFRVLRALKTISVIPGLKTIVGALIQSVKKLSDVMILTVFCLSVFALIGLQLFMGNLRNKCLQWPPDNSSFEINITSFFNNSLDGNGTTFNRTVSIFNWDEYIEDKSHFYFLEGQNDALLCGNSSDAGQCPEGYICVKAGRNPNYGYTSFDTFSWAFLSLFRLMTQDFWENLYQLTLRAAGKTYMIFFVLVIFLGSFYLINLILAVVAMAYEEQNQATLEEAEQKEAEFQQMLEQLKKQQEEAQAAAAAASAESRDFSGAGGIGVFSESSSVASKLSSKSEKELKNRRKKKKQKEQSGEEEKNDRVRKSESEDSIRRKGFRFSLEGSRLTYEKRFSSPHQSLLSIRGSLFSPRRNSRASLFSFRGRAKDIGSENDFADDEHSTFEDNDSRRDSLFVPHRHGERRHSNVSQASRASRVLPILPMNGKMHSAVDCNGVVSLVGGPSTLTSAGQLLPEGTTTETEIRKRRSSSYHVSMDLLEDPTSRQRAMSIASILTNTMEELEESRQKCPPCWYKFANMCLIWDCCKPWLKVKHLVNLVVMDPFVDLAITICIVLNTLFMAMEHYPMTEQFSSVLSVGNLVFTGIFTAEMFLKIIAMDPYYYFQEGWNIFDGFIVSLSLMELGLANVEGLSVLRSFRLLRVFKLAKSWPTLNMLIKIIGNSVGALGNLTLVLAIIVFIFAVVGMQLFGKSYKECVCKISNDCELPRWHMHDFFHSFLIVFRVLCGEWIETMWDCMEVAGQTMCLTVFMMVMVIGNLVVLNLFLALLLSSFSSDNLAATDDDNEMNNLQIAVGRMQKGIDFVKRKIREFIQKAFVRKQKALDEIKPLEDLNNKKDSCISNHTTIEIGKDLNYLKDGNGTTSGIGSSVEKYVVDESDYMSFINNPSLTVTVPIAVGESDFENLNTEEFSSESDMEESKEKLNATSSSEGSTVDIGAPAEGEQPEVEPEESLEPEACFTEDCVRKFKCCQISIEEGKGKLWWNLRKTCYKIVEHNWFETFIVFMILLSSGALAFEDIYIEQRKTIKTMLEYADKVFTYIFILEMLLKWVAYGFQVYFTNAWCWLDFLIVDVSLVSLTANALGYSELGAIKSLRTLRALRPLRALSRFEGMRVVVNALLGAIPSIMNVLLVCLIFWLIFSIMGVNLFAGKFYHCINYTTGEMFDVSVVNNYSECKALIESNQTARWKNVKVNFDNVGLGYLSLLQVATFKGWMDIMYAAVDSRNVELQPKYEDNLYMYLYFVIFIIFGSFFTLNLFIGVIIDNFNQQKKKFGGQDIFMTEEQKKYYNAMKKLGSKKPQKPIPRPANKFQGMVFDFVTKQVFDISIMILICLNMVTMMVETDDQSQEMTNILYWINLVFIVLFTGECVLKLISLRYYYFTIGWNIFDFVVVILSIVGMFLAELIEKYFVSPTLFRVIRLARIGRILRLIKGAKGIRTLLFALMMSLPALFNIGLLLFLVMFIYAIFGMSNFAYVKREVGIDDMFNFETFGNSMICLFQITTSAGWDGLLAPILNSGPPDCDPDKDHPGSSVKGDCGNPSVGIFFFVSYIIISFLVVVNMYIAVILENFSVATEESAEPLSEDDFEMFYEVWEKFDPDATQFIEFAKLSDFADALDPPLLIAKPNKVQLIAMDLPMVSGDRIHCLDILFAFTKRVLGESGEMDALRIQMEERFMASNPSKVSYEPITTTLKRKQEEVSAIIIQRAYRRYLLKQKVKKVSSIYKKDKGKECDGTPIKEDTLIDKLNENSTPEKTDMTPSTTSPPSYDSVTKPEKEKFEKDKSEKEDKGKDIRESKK

NaV1.3 = NaV1.3 (Homo sapiens, UniProt Q9NY46); conditions: read-out: TTX IC50; cited from earlier work
[3] = human, in vivo; cited from earlier work

T1 sequence (Q9Y5Y9 whole entry, looked up): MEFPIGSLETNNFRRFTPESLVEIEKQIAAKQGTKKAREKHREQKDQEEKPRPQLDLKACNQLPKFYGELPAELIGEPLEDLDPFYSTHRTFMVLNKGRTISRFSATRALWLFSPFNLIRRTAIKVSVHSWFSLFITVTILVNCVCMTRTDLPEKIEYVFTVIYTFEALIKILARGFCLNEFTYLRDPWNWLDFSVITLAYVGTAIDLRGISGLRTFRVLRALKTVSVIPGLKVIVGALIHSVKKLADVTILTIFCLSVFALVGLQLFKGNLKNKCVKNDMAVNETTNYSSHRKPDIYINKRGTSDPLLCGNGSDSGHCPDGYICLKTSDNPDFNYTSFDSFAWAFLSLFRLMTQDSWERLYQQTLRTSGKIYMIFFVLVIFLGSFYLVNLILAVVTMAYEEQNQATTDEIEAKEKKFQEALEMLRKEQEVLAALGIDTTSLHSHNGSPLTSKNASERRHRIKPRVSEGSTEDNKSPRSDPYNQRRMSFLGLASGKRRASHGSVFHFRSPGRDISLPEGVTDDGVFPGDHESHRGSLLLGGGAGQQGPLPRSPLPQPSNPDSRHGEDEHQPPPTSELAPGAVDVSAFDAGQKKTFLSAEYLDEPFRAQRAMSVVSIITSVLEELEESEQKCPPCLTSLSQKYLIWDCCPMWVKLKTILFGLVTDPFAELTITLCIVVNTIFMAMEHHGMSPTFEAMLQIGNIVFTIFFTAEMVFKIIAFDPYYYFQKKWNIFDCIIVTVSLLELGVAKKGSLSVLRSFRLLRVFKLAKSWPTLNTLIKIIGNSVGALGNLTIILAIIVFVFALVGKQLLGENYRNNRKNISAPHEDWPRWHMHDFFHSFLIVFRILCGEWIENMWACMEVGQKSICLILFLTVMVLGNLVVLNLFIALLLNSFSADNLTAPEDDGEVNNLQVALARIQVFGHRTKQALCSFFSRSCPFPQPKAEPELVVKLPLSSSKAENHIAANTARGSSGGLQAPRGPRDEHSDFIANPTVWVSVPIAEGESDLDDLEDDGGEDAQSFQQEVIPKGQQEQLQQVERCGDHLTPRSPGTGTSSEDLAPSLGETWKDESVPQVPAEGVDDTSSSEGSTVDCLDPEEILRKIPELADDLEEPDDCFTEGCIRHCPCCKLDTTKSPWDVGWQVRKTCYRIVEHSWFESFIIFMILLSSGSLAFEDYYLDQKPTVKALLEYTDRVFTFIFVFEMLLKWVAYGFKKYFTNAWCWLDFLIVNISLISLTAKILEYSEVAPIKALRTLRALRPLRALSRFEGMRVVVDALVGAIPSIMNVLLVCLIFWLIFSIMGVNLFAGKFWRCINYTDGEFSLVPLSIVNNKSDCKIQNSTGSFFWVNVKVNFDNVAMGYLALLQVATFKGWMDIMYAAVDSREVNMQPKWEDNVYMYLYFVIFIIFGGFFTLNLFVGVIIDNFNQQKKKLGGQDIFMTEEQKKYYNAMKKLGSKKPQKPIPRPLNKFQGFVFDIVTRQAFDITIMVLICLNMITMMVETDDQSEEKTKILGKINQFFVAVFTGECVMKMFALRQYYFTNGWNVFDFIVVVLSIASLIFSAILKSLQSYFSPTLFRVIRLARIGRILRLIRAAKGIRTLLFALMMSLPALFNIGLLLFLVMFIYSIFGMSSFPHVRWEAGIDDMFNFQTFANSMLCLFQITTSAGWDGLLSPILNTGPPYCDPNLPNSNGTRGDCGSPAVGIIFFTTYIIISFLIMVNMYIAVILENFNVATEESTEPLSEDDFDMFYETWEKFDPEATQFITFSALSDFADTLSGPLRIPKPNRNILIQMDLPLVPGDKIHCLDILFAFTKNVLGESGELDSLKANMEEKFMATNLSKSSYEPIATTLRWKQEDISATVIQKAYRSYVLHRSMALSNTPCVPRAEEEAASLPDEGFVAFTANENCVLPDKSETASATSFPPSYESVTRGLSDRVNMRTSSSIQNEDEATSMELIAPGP

SMILES	IC50 (NaV1.8 [1]) [nM]	also measured
Oc1ccccc1-c1nc(N2CCOCC2)c2sc(-c3ccc(F)cc3)cc2n1 [Compound 1, 2-(6-(4-Fluorophenyl)-4-morpholinothieno[3,2-d]pyrimidin-2-yl)phenol]	> 20000	–
CC(C)COC(=O)NC1CCN(c2nc(-c3ccccc3O)nc3ccsc23)CC1 [Compound 8, Isobutyl 1-(2-(2-hydroxyphenyl)thieno[3,2-d]pyrimidin-4-yl)piperidin-4-ylcarbamate]	< 5000	–
Cc1csc2nc(-c3ccccc3O)nc(N3CCC(NC(=O)OCC(C)C)CC3)c12 [Compound 6, Isobutyl 1-(2-(2-hydroxyphenyl)-5-methylthieno[2,3-d]pyrimidin-4-yl)piperidin-4-ylcarbamate]	> 20000	–
CC(C)COC(=O)N1CCN(c2nc(-c3ccccc3O)nc3ccsc23)CC1 [Compound 7, Isobutyl 4-(2-(2-hydroxyphenyl)thieno[3,2-d]pyrimidin-4-yl)piperazine-1-carboxylate]	< 5000	–
NC1=N[C@H](O)[C@H]2[C@H]3O[C@]4(O)O[C@@H]([C@@H](O)[C@@]2(N1)[C@@H]4O)[C@]3(O)CO [TTX, tetrodotoxin]	–	IC50 (NaV1.9): 1000 nM; IC50 (NaV1.1): 10 nM; IC50 (NaV1.6): 6 nM; IC50 (NaV1.8 [2]): > 50000 nM; IC50 (NaV1.2): 10 nM; IC50 (NaV1.3): 15 nM
CCCCS(=O)(=O)N1CCN(c2nc(-c3ccccc3O)nc3scc(C)c23)CC1 [Compound 5, 2-(4-(4-(butylsulfonyl)piperazin-1-yl)-5-methylthieno[2,3-d]pyrimidin-2-yl)phenol]	> 20000	–
NCC1(CC(=O)O)CCCCC1 [Gabapentin]	–	patients in whom it works [3]: 60%
Cc1cc(C)c2c(n1)sc1c(N3CCOCC3)nc(-c3ccccc3O)nc12 [Compound 2]	> 20000	–
Cc1csc2nc(-c3ccccc3O)nc(N3CCN(C(=O)OCC(C)C)CC3)c12 [Compound 4, Isobutyl 4-(2-(2-hydroxyphenyl)-5-methylthieno[2,3-d]pyrimidin-4-yl)piperazine-1-carboxylate]	> 20000	–
